From PMC9218946, “Identification of a Subtype-Selective Allosteric Inhibitor of GluN1/GluN3 NMDA Receptors” (Frontiers in Pharmacology, 2022)

Assays:
[1] = tested on: KA receptors; assay: Whole-cell patch-clamp, KA-induced currents in acutely isolated hippocampal neurons; format: cell-based, rat; conditions: 10 μM WZB117
Protocol: Hippocampal neurons were obtained from Sprague-Dawley rats (aged P7-14). Briefly, the isolated hippocampal tissues were cut into approximately […] slices along the sagittal plane and were digested with 3 mg/ml proteinase (Sigma-Aldrich) at 32°C for 8 min. Then 1 mg/ml bovine serum albumin (Sangon Biotech) and 1 mg/ml trypsin inhibitor (Sigma-Aldrich) were used to stop the digestion. A few slices of the hippocampus were gently blown into single cells with the dissecting solution, then transferred to a dish and left to rest for 20 min before experiments. The dishes were preprocessed. Essentially, the bottom of the dish was covered with discarded cell suspension the day before the experiment and was washed and dried the next day, which prevented the neurons from sticking to the bottom too tightly. The dissecting solution contained (in mM): 82 Na2SO4, 30 K2SO4, 5 MgCl2, 1 Na pyruvate, 10 HEPES, and 20 glucose. The pH was adjusted to 7.2 using NaOH ([Xie et al., 2020]).
Whole-cell patch-clamp recordings were performed at room temperature (22–25°C) using an EPC-10 amplifier and Patch Master Software (HEKA). Pipettes were pulled from borosilicate glass capillaries (World Precision Instruments), and the resistances were 3–5 MΩ when filled with the intracellular solution. […]

[2] = target: T1, GluN1/GluN3A receptors (UniProt Q05586+Q9R1M7); assay: Whole-cell patch-clamp recording on GluN1/GluN3A Flp-in T-REx 293 stable cell lines; format: cell-based, human GluN1-1a, rat GluN3A; design: expressed in transfected cells
T1 sequence (Q9R1M7 24-1135, other chains not shown): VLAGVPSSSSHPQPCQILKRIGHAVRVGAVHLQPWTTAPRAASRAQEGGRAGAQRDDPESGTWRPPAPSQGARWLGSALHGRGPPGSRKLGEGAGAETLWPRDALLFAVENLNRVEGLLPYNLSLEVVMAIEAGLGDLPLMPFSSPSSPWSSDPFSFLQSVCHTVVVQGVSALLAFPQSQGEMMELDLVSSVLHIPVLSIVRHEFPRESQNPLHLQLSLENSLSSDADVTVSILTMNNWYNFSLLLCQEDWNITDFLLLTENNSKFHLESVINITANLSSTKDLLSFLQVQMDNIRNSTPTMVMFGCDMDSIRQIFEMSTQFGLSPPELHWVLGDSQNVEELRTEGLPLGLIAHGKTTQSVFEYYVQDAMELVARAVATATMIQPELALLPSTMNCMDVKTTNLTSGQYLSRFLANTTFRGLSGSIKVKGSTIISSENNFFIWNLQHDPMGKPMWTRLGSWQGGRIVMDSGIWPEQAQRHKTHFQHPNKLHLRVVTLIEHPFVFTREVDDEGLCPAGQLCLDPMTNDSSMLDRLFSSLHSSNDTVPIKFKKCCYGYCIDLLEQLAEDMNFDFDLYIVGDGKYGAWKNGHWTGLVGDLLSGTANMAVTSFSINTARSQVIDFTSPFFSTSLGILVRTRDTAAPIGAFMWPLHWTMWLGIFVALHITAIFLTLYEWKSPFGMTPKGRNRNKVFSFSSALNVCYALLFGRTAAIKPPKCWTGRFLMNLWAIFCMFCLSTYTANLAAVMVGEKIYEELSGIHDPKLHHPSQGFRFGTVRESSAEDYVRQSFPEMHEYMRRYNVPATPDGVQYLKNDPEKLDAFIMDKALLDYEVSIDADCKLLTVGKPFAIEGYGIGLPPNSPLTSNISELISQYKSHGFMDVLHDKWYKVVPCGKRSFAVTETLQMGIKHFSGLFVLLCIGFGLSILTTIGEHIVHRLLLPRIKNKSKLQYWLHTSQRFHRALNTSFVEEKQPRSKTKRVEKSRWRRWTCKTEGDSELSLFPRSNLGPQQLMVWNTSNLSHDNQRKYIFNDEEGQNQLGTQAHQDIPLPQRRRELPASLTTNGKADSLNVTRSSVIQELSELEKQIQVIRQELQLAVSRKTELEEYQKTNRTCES
Protocol: To establish GluN1/GluN3A stable cell lines, the human GluN1-1a (GenBank: NP_015566.1) and the rat GluN3A (GenBank: NP_612555.1) genes were subcloned into the pcDNA5-FRT-To and pcDNA3.1 vectors, respectively. An EGFP tag was added to the C-terminus of GluN1 or GluN3A using a T2A linker for identification of transfected cells during transient transfection. Point mutations were introduced by site-directed mutagenesis using PrimeSTAR (Takara). The human GluN2A (GenBank: NP_000824.1) gene was subcloned into the pcDNA3.1 vector. The chimeras GluN3A^670-673 MWPL/LEPF and GluN2A^550-553 LEPF/MWPL were generated using In-Fusion HD Cloning kits (Takara). All constructs were confirmed by DNA sequencing (Beijing Genomics Institute).
The Flp-in T-Rex 293 cell lines (Invitrogen), stably expressing GluN1/GluN3A were grown in DMEM basal medium (Gibco) supplemented with 10% fetal bovine serum (FBS, Invitrogen), 15 μg/ml blasticidin S (Invitrogen), 50 μg/ml hygromycin B (Invitrogen) and 500 μg/ml G418 (Gibco). Expression in cell lines was induced with 1 μg/ml doxycycline (Invitrogen) 24–28 h prior to the experiments. Chinese hamster ovary (CHO) cells were grown in DMEM-F12 basal medium (Gibco) supplemented with 10% FBS. In the study on the action sites of WZB117, all whole-cell patch-clamp recordings were performed on CHO cells. The transfections were carried out using Lipofectamine 3000 transfection reagent (Thermo Fisher) according to the manufacturer’s instructions. All cells mentioned above were cultured in a 5% CO2 incubator at 37°C and passaged every other day at a ratio of 1:3.
Whole-cell patch-clamp recordings were performed at room temperature (22–25°C) using an EPC-10 amplifier and Patch Master Software (HEKA). Pipettes were pulled from borosilicate glass capillaries (World Precision Instruments), and the resistances were 3–5 MΩ when filled with the intracellular solution. The extracellular solution contained (in mM): 140 NaCl, 2.8 KCl, 1 CaCl2, 10 HEPES and 20 sucrose (290–300 mOsm), pH adjusted to 7.3 using NaOH. The pipette solution contained (in mM): 115 CsF, 10 CsCl, 10 HEPES and 10 BAPTA (280–290 mOsm), pH adjusted to 7.2 using CsOH ([Grand et al., 2018]). When recording in hippocampal neurons, the extracellular solution contained (in mM): 140 NaCl, 5 KCl, 1 CaCl2, 1.25 MgCl2, 10 glucose, and 10 HEPES, and the pH was adjusted to 7.4 using NaOH, and the pipette solution contained (in mM): 140 KCl, 1 MgCl2, 10 EGTA, and 10 HEPES, and the pH was adjusted to 7.2 using KOH ([Xie et al., 2020]). Drug-containing solutions were applied through an RSC-200 Rapid Solution Changer with a 9-tube head (BioLogic Co., France), in which the cell is positioned close to the output of a capillary. The solution, containing either one drug or a combination of different drugs, to be assayed flows out of the capillary at a moderate flow rate by gravity. The lifted cell, exposed to this stream, rapidly equilibrates in the perfusion solution. Whole-cell patch-clamp recordings in heterologous cells and hippocampal neurons were performed at a holding potential of −60 mV. Currents were sampled at 10 kHz and low pass filtered at 2.9 kHz. To record the native GluN1/GluN3 receptor-mediated currents, the extracellular solution was supplemented with 10 μM bicuculline (Sigma-Aldrich), 2 μM NBQX (Topscience), 100 μM D-APV (MCE), and 50 μM strychnine (UHN Shanghai) to block γ-aminobutyric acid type A (GABAA), α-amino-3-hydroxy-5-methylisoxazole-4-propionate (AMPA), GluN1/GluN2 NMDA and glycine receptors, respectively. To record the native GluN2-NMDARs-mediated currents, 10 μM bicuculline and 2 μM NBQX were added into the extracellular solution to block GABAA receptors and AMPA receptors, respectively ([Grand et al., 2018]; [Otsu et al., 2019]; [Zhu et al., 2020]).
Patch-clamp data were processed using Clampfit 10.4 (Molecular Device, Sunnyvale, CA, United States) and analyzed with GraphPad Prism 5.0 (GraphPad Software, San Diego, CA, United States). […]

[3] = target: T1, GluN1/GluN3A receptors; assay: TEVC recording in Xenopus oocytes expressing GluN1/GluN3A; format: cell-based; design: expressed in transfected cells; host or cells: Xenopus oocytes (cDNA/cRNA injection); conditions: 30 μM WZB117, Xenopus oocytes
Protocol: Two-electrode voltage-clamp (TEVC) recordings were performed on Xenopus oocytes expressing various subtypes of recombinant NMDARs. Each oocyte was injected with a mixture of 0.5–1.0 ng cDNAs or cRNAs encoding wild-type (WT) or mutant GluN1 (GluN1-1a or GluN1-4a) and GluN2 (2A-2D) or GluN3 (3A-3B) at a ratio of 1:1. The mutant GluN1-4a ^F484A/T518L was injected together with GluN3B to boost the currents of GluN1/GluN3B receptors, and WT GluN1-1a was used unless otherwise stated. The cRNAs of GluN1-4a, GluN3A and GluN3B were transcribed from corresponding DNAs using the mMESSAGE mMACHINE T7 Ultra kit (Life Technologies) according to the manufacturer’s instructions, and the others not specified were cDNAs. TEVC recording was performed 24–72 h post injection in extracellular solution containing (in mM): 100 NaCl, 0.3 BaCl2, 2.5 KCl, 0.01 DTPA and 5 HEPES, and the pH was adjusted to 7.3 using NaOH. All recordings were carried out at a holding potential of −60 mV.

SMILES: O=C(Oc1cccc(F)c1OC(=O)c1cccc(O)c1)c1cccc(O)c1 [WZB117, 3-fluoro-1,2-phenylene bis(3-hydroxybenzoate)]
- effect on KA-induced currents [1]: little effect
- IC50 ([2]; 10 μM glycine): 1080 ± 310 nM
- IC50 ([2]; 100 μM glycine, pH 7.3, holding potential −60 mV): 1150 ± 340 nM
- remaining activity at 3 µM ([2]; Flp-In-T-REx-293, read-out: I drug/I control): 8 ± 2%
- inhibition of currents [3]: potently suppressed
